“Also recorded” adds a separate entry of the source.
Experiments:
UCHL1 [1] = biological target: T1, UCHL1 (Homo sapiens, UniProt P09936); experiment: UCHL1 covalent adduct determination by LC-ESI-MS; type: binding; design: (residues 1-223, Uniprot P09936); GST (N, cleaved yes); made in house; host or cells: E. coli Rosetta 2(DE3), pGEX-6P-1; conditions: UCHL1 5 μM, compound 13 μM, 60 min
T1 sequence (P09936 1-223): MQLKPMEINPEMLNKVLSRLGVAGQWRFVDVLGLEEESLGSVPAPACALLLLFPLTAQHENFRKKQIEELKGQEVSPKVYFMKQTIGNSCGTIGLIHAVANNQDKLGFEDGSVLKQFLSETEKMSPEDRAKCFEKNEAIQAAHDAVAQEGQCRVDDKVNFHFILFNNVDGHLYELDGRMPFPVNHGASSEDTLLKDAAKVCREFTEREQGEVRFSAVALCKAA
Procedure: (§1) values were plotted against compound concentration to afford the apparent second order rate constant for inhibition, ka/I. The absolute value of the second order rate constant kobs/I was […]
(§2) Reversible inhibition assay: Jump dilution assays were performed by incubating UCHL1 […]
(§3) negative controls (iodoacetamide (IAA) 10 mM) for 30 min at room temperature. The reaction […]
(§4) intensity read immediately for 1 h.
(§5) UCHL1 covalent adduct determination […]
(§6) pH 7.5) was incubated with compound 1, 2 (2.5 equiv.) or DMSO for 1 h at room temperature.
(§7) The excess ligand was removed by washing with buffer D in an Amicon® Ultra MWCO 10 kDa centrifugation spin filter three times. The protein-adducts were desalted using 3× SDB-XC polystyrene-divinylbenzene copolymer extraction disks, following published methods.5 Samples were eluted with 50% (v/v) MeCN 0.5% (v/v) formic acid in LC-MS grade water and analyzed by LC-ESI (ACQUITY UPLC H-Class PLUS instrument (Waters)) using an ACQUITY UPLC BEH C4 column (Waters) coupled with Waters LCT Premier MS detector.
UCHL1 covalent adduct site identification […]
(§8) The MS data was analyzed by PEAKS Studio 8.5 (Bioinformatics Solutions Inc.). […]
(§9) Homogeneous time resolved fluorescence (HTRF) assay […]
(§10) BME) and incubated for 30 min at room temperature. […] The plates were sealed and incubated overnight at 4 °C then read using a PHERAstar (BMG), and the Delta F calculated: […]

UCHL1 [2] = biological target: T1, UCHL1; experiment: UCHL1 covalent adduct site identification (tryptic digest, nanoLC-MS/MS, PEAKS); type: binding; design: (residues 1-223, Uniprot P09936); GST (N, cleaved yes); made in house; host or cells: E. coli Rosetta 2(DE3), pGEX-6P-1; conditions: for site of UCHL1 modification: UCHL1 5 μM, compound 13 μM, 1 h, tryptic digest
Procedure: b) 2 modification: 96% peptide sequence coverage
Figure S9. Identification of modification sites by nanoLC-MS/MS.
Recombinant UCHL1 (5 µM) was incubated with compound 1 or 2 (13 µM) for 1 h at room temperature. The labeled protein was digested with trypsin and analyzed by nanoLC-MS/MS.
The data was processed in PEAKS 8.0. 82% and 96% of UCHL1 peptide sequence coverage for (a) 1, or (b) 2 modification, respectively. The high confidence modification of compound 1 […]
Statistical data and peptide lists from PEAKS are detailed in Supplementary Data S1. […]
as §1, §2, §3, §4, §5, §6, §7
UCHL1 covalent adduct site identification
Compound-protein adduct samples were prepared as described above and digested with trypsin (Promega, 1:50 trypsin:UCHL1 ratio) at 37 °C, overnight. […]
as §8, §9, §10

FGFR2 = FGFR2 (Homo sapiens, UniProt P21802); experiment: In-cell proteome-wide competitive ABPP, HEK293: FGFR2; conditions: HEK293, compound 60 min, then 2 (20 nM) 10 min
FGFR2, sequence (P21802 22-821): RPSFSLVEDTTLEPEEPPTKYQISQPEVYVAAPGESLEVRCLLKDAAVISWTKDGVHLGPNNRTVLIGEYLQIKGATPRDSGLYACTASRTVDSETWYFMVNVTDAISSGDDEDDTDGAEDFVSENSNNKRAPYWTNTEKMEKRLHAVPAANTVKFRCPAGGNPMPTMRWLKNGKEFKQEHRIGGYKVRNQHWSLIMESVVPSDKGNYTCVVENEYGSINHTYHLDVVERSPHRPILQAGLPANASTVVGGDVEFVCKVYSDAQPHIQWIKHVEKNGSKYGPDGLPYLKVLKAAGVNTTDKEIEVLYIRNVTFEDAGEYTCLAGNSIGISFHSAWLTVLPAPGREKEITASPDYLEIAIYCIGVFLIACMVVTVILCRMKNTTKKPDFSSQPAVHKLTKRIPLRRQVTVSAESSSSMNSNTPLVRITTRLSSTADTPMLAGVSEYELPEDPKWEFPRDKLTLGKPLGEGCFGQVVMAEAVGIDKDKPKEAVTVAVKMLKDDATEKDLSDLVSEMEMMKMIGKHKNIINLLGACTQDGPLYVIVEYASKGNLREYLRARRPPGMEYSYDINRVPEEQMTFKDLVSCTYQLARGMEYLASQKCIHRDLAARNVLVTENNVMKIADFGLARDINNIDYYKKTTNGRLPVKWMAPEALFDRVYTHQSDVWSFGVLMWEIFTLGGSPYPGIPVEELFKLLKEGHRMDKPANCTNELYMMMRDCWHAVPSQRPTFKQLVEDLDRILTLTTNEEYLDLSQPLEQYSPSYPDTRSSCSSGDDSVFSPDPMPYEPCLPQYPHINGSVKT

UCHL1 [3] = biological target: T1, UCHL1; experiment: Competitive ABPP against ABP 2 in HEK293 cells, in-gel fluorescence and pulldown/UCHL1 immunoblot; type: cell-based; design: rapidly targets endogenous UCHL1 in cells; endogenous in cells; host or cells: HEK293; conditions: HEK293, compound 1 h, then 2 (20 nM) 10 min
[4] = biological target: fibroblast growth factor receptor 2 (FGFR2) (Homo sapiens, UniProt P21802); experiment: Quantitative chemical proteomic profiling of ABP 2 in HEK293 cells: FGFR2; conditions: HEK293, 20 nM
fibroblast growth factor receptor 2 (FGFR2), sequence (P21802 22-821): as above

[5] = tested on: primary human bronchial fibroblasts from IPF patients
in vitro = conditions: human

Compound | covalent modification of UCHL1 by LC-ESI-MS (UCHL1 [1]) | site of UCHL1 modification (UCHL1 [2]) | competition for UCHL1 labeling by ABP 2 (immunoblot) (UCHL1 [3]) | also measured
N#CN1CCC[C@H]1C(=O)N1CCc2c(-c3c[nH]c4ncccc34)cccc21 [Compound 1] | single modification | catalytic cysteine 90; also recorded: catalytic cysteine (Cys90) | dose-dependent UCHL1 labeling reduction | FGFR2 response in proteome-wide competitive ABPP (FGFR2): responds
C#Cc1cnc2[nH]cc(-c3cccc4c3CCN4C(=O)[C@@H]3CCCN3C#N)c2c1 [Compound 2] | single modification | catalytic cysteine 90; also recorded: catalytic cysteine (Cys90) |  | FGFR2 enrichment (chemical proteomics) [4]: significantly enriched; Peptide carrying the compound 2 modification (C, +381.16) (UCHL1 [2]; recombinant UCHL1 (P09936) treated with compound 2, tryptic digest, PEAKS, PTM code n = Compound 2 modification (C)): QTIGNSC(+381.16)GTIGLIHAVANNQDKLGFEDGSVLK; also recorded: QTIGNSC(+381.16)GTIGLIHAVANNQDK; also recorded: QTIGNSC(+381.16)GTIGLIHAVANNQDKLGFEDGSVLKQFLSETEK
N#CN1CCC[C@@H]1C(=O)N1CCc2c(-c3c[nH]c4ncccc34)cccc21 [Compound 3] |  |  | no competition | 
CC(=O)O/N=C1\C(=O)N(Cc2cc(Cl)ccc2Cl)c2ccc(Cl)cc21 [LDN-57444, reference compound] |  |  |  | cytotoxicity (in words) [5]: increased cytotoxicity; EC50 at 3 days (in vitro): ~9.2 µM
